One test concerns the target T1, mouse TGR5 receptor (Mus musculus, UniProt Q80SS6).
T1 construct: host or cells: HEK293-EBNA (293 c18, ATCC CRL10852)
T1 sequence (Q80SS6 1-329): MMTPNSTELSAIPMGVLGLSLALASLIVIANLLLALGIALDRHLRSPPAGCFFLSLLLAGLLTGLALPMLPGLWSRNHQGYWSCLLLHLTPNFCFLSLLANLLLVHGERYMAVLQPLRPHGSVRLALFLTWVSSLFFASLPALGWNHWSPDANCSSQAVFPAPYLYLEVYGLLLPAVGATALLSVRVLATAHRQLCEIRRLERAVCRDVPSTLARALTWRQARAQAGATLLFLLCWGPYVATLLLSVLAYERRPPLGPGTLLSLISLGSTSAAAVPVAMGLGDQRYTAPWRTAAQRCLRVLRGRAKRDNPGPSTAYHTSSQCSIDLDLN
In words: Mouse TGR5 luminescent cAMP production assay (HEK293-EBNA cells, DiscoveRx cAMP XS+ kit). As to conditions: HEK293-EBNA cells overexpressing mouse TGR5, luminescent cAMP assay; read-out: Mouse TGR5 Lum. cAMP Activity (EC50). It is filed as cell-based. A digest of the protocol: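 HEK293-EBNA cells stably expressing mouse TGR5, resuspended in serum-free DMEM with 500 μM IBMX, were premixed 20 min with cAMP antibody, then exposed to half-log compound dilutions for 1 h at room temperature. cAMP was read by luminescent enzyme-fragment complementation (cAMP XS+) after overnight incubation; EC50 derived.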

The subject of another test is GLP-1. The experiment in a line: GLP-1 measurement at end of OGTT in C57BL/6NTac mice. It is filed as in vivo, mouse. The following applies: for blood GLP-1 level after OGTT, combination with sitagliptin: 30 mg/kg + sitagliptin 3 mg/kg p.o. As to the method: Immediately after the last blood glucose measurement (i.e., 120 minutes after the glucose administration), the blood was collected via cardiac puncture for GLP-1 measurements. The collected blood (200-250 μL) was placed in an EDTA K^2+ tube containing 5 μL of 40 mg/mL aprotinin (Sigma A1153) and 1 μL of 10 mM sitagliptin (Sigma S8576) and plasma was separated by centrifugation. Plasma samples were stored at −20° C. until analysis. The active form of GLP-1 [GLP-1 (7-36) amide] was analyzed using Meso Scale Discovery System according to the manufacturer's directions (item number K150HYC). […] A synergy between the Compound 56 and sitagliptin is also observed (FIG. 3). Values of p<0.01 and <0.001 are considered statistically significant.
FIG. 4 depicts blood glucose measurements at 15, 30, 60, 90, and 120 min following glucose gavage. FIG. 5 depicts AUC data after glucose gavage. FIG. 6 depicts the blood GLP-1 levels comparing mice treated with a DPP-4 inhibitor (i.e., sitagliptin) to mice treated with Compound 268+a DPP-4 inhibitor (i.e., sitagliptin).

The test system of a further test is blood glucose. In words: Oral glucose tolerance test (OGTT) in C57BL/6NTac mice. It is filed as in vivo, mouse. As to the method: Oral Glucose Tolerance Test (OGTT)
Compounds of the present invention were tested to determine if they could decrease blood glucose levels in mice after glucose administration (i.e., effective in glycemic control). In this study, we orally administered a standard dose of glucose to mice and measured glucose levels in circulating blood at several defined time points after the glucose administration.
8-12 week old male C57BL/6NTac (Taconic) mice were fasted overnight. On the morning of the experiment, the mice were weighed and divided into experimental groups (n=8) assigned by randomizing mice based on baseline blood glucose levels. Following group assignments, mice were dosed with 3 mg/kg sitagliptin or PBS as vehicle control via oral gavage (5 mL/kg) exactly 1 hour before oral gavage dosing of compound (30 mg/kg) or vehicle (0.5% carboxymethylcellulose (medium viscosity)+0.25% Tween −80) at a volume of 10 mL/kg. Time zero blood glucose levels were measured 4 hours after compound or vehicle dosing. Immediately following time zero blood glucose level measurement, mice were gavaged with 2 g/kg of glucose. […] AUC were calculated and data analyzed using one-way ANOVA followed by Dunnett's post-test in GraphPad Prism (FIG. 2). […]

Data on eight compounds can be found in patent US10654834B2 (Venenum Biodesign, LLC, priority 2016, dated 2020).

Bounds are passed on as bounds.

For the compound `N#Cc1ccc(CCNC(=O)[C@@H]2CCCN2c2cc(N3CCC(CCN)CC3)nc(C(F)(F)F)n2)cc1` [Compound 50, (S)-1-(6-(4-(2-aminoethyl)piperidin-1-yl)-2-(trifluoromethyl)pyrimidin-4-yl)-N-(4-cyanophenethyl)pyrrolidine-2-carboxamide], at mouse TGR5 receptor, the EC50 was under 100 nM. The same measure, in the same setting: the figure for `N#Cc1ccc(CCNC(=O)[C@@H]2CCCN(c3cc(N4CCC(CO)CC4)nc(C(F)(F)F)n3)C2)cc1` [Compound 308, (R)—N-(4-cyanophenethyl)-1-(6-(4-(hydroxymethyl)piperidin-1-yl)-2-(trifluoromethyl)pyrimidin-4-yl)piperidine-3-carboxamide] is under 100 nM. Turning to `N#Cc1ccc(CCNC(=O)[C@@H]2CCCN2c2cc(N3CCC(CCC(=O)NCCS(=O)(=O)O)CC3)nc(C(F)(F)F)n2)cc1` [Compound 56, (S)-2-(3-(1-(6-(2-((4-cyanophenethyl)carbamoyl)pyrrolidin-1-yl)-2-(trifluoromethyl)pyrimidin-4-yl)piperidin-4-yl)propanamido)ethanesulfonic acid], the “blood GLP-1 level after OGTT, combination with sitagliptin” value in the test with GLP-1 is reported as “synergy”. Moreover, the “blood GLP-1 level after OGTT” value in the test on GLP-1 (30 mg/kg p.o., 120 min after glucose) is “increased GLP-1 level”. The “blood glucose levels in OGTT” value in the test on blood glucose (30 mg/kg p.o. 4 h before 2 g/kg glucose, 15-120 min) is “effectively reduced blood glucose levels throughout the time period measured”. With `N#Cc1ccc(CCNC(=O)[C@@H]2CCN2c2cc(N3CCC(CCNC(=O)NCCC(=O)O)CC3)nc(C(F)(F)F)n2)cc1` [Compound 268, (S)-3-(3-(2-(1-(6-(2-((4-cyanophenethyl)carbamoyl)azetidin-1-yl)-2-(trifluoromethyl)pyrimidin-4-yl)piperidin-4-yl)ethyl)ureido)propanoic acid], in the test on GLP-1, the “blood GLP-1 level after OGTT, combination with sitagliptin” value is on record as “induced GLP-1 production”. For the same compound, the “blood glucose levels in OGTT, combination with sitagliptin” value in the test on blood glucose (30 mg/kg + sitagliptin 3 mg/kg p.o. versus sitagliptin alone) is “effectively reduced blood glucose levels throughout the time period measured”. As to `COCC1CCN(c2cc(N3CCC[C@H]3C(=O)NCCc3ccc(C#N)cc3)nc(C(F)(F)F)n2)CC1` [Compound 24], on mouse TGR5 receptor, the 50% effective concentration (EC50) was under 100 nM. As to `N#Cc1ccc(CCNC(=O)[C@@H]2CCN2c2cc(N3CCC(CCO)CC3)nc(C(F)(F)F)n2)cc1` [Compound 223, (S)-N-(4-cyanophenethyl)-1-(6-(4-(2-hydroxyethyl)piperidin-1-yl)-2-(trifluoromethyl)pyrimidin-4-yl)azetidine-2-carboxamide], at mouse TGR5 receptor, the EC50 was under 100 nM. Regarding `N#Cc1ccc(CCNC(=O)[C@@H]2CCCN2c2cc(N3CCC(CCO)CC3)nc(C(F)(F)F)n2)cc1` [Compound 22], the concentration for a half-maximal effect (EC50) on mouse TGR5 receptor is under 100 nM.

Regarding `N#Cc1ccc(CCNC(=O)[C@@H]2CCN2c2cc(N3CCC(CO)CC3)nc(C(F)(F)F)n2)cc1` [Compound 219, (S)—N-(4-cyanophenethyl)-1-(6-(4-(hydroxymethyl)piperidin-1-yl)-2-(trifluoromethyl)pyrimidin-4-yl)azetidine-2-carboxamide], the 50% effective concentration (EC50) on mouse TGR5 receptor is under 100 nM.
